Data published in patent publication US20050209232A1, “Pyridazinone ureas as antagonists of alpha4 integrins” (priority 2004, published 2005).
pIC50: −log10 of the molar value.

Tests used:
α4β1 = target: T1, α4β1 (Homo sapiens, UniProt P05556+P13612); test: Ramos Cell Adhesion Assay (α4β1 Mediated Adhesion/VCAM-1); format: cell-based; settings: Ramos cells adhering to recombinant hVCAM-1
T1 construct: Ramos cells, (50 μL at 2×10^6/mL) labeled with 5 μM Calcein AM; endogenous in cells; host or cells: Ramos cells
Procedure: Ramos Cell Adhesion Assay (α4β1 Mediated Adhesion/VCAM-1)
Immulon 96 well plates (Dynex) were coated with 100 μL recombinant hVCAM-1 at 4.0 μg/mL in 0.05 M NaCO3 buffer pH 9.0 overnight at 4° C. (R&D Systems). Plates were washed 2 times in PBS with 1% BSA and blocked for 1 h@room temperature in this buffer. PBS was removed and compounds to be tested (50 μL) were added at 2× concentration. Ramos cells, (50 μL at 2×10^6/mL) labeled with 5 μM Calcein AM (Molecular Probes) for 1 h at 37° C., were added to each well and allowed to adhere for 1 h at room temperature. Plates were washed 4 × in PBS+1% BSA and cells were lysed for 15 minutes in 100 μL of 1 M Tris pH 8.0 with 1% SDS. The plate was read at 485 nm excitation and 530 nm emission.

human α4β7 integrin = target: T2, human α4β7 integrin (Homo sapiens, UniProt P13612+P26010); test: α4β7-K562 Cell Adhesion Assay (α4β7 Mediated Adhesion/MAdCAM-1); format: cell-based; settings: K562 cells expressing human α4β7 adhering to FLAG-hMAdCAM-1, 1 mM Mn2+
T2 construct: expressed in transfected cells; host or cells: K562 cells, stably transfected
T2 sequence (P13612 34-1032): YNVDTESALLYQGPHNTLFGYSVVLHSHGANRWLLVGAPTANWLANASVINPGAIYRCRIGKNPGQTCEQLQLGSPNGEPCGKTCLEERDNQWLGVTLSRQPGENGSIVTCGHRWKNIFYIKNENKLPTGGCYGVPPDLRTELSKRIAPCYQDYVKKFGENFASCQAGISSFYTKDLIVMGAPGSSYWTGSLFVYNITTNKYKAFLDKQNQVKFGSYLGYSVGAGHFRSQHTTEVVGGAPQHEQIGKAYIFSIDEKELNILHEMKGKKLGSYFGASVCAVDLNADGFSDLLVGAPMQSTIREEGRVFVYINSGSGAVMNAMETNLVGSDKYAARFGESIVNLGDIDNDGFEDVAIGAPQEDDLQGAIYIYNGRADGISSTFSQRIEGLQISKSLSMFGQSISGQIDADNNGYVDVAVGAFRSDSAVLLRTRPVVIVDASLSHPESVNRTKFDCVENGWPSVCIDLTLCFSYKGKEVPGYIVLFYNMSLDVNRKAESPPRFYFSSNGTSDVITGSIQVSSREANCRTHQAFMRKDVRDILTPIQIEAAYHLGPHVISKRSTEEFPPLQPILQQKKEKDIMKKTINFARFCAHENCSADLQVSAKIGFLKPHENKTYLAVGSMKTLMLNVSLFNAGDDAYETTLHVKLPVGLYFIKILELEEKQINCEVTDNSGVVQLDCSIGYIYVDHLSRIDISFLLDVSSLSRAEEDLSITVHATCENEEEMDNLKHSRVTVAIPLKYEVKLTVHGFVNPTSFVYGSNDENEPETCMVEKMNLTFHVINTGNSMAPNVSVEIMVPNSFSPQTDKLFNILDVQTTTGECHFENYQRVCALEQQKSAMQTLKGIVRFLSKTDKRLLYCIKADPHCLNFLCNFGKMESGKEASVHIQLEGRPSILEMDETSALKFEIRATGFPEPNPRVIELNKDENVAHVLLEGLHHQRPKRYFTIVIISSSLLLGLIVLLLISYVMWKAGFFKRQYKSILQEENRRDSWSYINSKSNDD
T2 sequence (P26010 20-798): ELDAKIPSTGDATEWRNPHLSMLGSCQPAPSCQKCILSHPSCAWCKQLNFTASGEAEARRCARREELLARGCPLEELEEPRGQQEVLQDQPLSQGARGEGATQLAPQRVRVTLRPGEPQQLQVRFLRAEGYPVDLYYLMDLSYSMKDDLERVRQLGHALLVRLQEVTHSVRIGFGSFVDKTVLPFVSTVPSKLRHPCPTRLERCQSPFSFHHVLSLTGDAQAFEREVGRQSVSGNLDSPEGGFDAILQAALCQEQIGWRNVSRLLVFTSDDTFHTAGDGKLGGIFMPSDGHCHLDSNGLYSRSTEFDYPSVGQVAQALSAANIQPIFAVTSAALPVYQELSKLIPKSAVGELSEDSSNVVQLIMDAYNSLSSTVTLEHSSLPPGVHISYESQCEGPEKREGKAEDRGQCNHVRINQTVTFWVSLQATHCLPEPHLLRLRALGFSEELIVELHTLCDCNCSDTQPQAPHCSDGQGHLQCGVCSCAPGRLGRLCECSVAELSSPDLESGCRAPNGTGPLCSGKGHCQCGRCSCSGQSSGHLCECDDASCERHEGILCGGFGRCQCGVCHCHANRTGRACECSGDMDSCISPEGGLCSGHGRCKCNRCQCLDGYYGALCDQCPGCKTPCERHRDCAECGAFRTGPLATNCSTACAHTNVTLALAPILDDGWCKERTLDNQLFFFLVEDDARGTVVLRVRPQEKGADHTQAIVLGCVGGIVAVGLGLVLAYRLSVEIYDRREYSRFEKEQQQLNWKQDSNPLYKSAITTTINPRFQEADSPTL
Procedure: α4β7-K562 Cell Adhesion Assay (α4β7 Mediated Adhesion/MAdCAM-1)
M2 anti-FLAG Antibody Coated 96-well plates (Sigma) were coated for 1 hour at 4° C. with 2-8 μL/well recombinant FLAG-hMAdCAM-1 contained in 100 μL of Dulbecco's PBS, pH 7.4, with 1% BSA and 1 mM Mn^2+ (PBS-BSA-Mn). Plates were washed once with PBS-BSA-Mn. Buffer was removed and compounds to be tested (50 μL) were added at 2× concentration. Stably transfected K562 cells expressing human α4β7 integrin, (50 μL at 2×10^6/mL) that had been labeled with 100 μg/mL carboxymethyl fluorescein diacetate succinimidyl ester (CFDA-SE; Molecular Probes) for 15 min at 37° C. were added to each well and allowed to adhere for 1 h at room temperature. Plates were washed 4× in PBS-BSA-Mn and then cells were lysed for 2 min by addtion of 100 μL of PBS without Ca^2+, Mg^2+ supplemented with 0.1 M NaOH. The plate was read on a 96-well fluorescent plate reader at 485 nm excitation and 530 nm emission.

T1 sequence (P05556 21-798, one chain of several): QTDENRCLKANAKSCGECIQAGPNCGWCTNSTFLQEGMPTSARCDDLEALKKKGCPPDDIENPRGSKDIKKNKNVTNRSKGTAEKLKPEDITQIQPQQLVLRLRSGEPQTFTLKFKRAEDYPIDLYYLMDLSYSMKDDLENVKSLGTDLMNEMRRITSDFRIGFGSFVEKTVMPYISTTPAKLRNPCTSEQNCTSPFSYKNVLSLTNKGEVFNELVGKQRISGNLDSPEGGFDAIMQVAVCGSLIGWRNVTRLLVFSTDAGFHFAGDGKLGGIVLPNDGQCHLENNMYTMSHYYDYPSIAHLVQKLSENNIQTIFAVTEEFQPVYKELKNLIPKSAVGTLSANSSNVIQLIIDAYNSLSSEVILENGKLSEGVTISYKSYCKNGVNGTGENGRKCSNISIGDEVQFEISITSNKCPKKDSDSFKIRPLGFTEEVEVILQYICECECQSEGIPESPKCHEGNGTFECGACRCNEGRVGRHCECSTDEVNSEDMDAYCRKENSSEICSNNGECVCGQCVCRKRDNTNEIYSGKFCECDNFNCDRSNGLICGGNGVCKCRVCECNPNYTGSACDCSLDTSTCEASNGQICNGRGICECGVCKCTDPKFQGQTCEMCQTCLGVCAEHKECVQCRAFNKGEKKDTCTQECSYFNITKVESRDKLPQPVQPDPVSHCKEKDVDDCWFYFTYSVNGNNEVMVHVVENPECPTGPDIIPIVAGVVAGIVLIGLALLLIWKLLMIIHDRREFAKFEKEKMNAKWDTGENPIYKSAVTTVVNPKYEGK

SMILES | pIC50 (α4β1) | pIC50 (human α4β7 integrin)
COc1cnn(C)c(=O)c1-c1ccc(C[C@H](NC(=O)N2CCC(O)C2)C(=O)O)cc1 (mixture of isomers) [Cpd 6] | < 5.30 | 6.42
COc1cnn(C)c(=O)c1-c1ccc(C[C@H](NC(=O)N(Cc2cccnc2)C2CN3CCC2CC3)C(=O)O)cc1 (mixture of isomers) [Cpd 40] | < 5.30 | 6.00
COc1cnn(C)c(=O)c1-c1ccc(C[C@H](NC(=O)N(C(C)C)C(C)C)C(=O)O)cc1 [Cpd 1, 2-(3,3-Diisopropyl-ureido)-3-[4-(5-methoxy-2-methyl-3-oxo-2,3-dihydro-pyridazin-4-yl)-phenyl]-propionic acid] | < 6.00 | 6.91
COc1cnn(CCO)c(=O)c1-c1ccc(C[C@H](NC(=O)Nc2c(Cl)cccc2Cl)C(=O)O)cc1 [Cpd 2] | 5.54 | 7.55
COc1cnn(CCO)c(=O)c1-c1ccc(C[C@H](NC(=O)NC2CCCCC2)C(=O)O)cc1 [Cpd 3] | < 5.30 | 6.51
COc1cnn(CCO)c(=O)c1-c1ccc(C[C@H](NC(=O)Nc2ccccc2F)C(=O)O)cc1 [Cpd 4] | < 5.30 | 5.56
COc1cnn(C)c(=O)c1-c1ccc(C[C@H](NC(=O)N2CCN(C)CC2)C(=O)O)cc1 [Cpd 5] | < 5.30 | 6.33
COc1cnn(C)c(=O)c1-c1ccc(C[C@H](NC(=O)NCCO)C(=O)O)cc1 [Cpd 7] | < 5.30 | 6.10
COc1cnn(C)c(=O)c1-c1ccc(CC(NC(=O)N2CCCC2CO)C(=O)O)cc1 (centres unmarked) [Cpd 8, 2-[(2-Hydroxymethyl-pyrrolidine-1-carbonyl)-amino]-3-[4-(5-methoxy-2-methyl-3-oxo-2,3-dihydro-pyridazin-4-yl)-phenyl]-propionic acid] | < 5.30 | 6.47
COc1cnn(C)c(=O)c1-c1ccc(C[C@H](NC(=O)NCc2ccccc2)C(=O)O)cc1 [Cpd 9] | < 5.30 | 6.43
COc1cnn(C)c(=O)c1-c1ccc(C[C@H](NC(=O)N(C)c2ccccc2)C(=O)O)cc1 [Cpd 10] | < 5.30 | 7.20
COc1cnn(C)c(=O)c1-c1ccc(C[C@H](NC(=O)N(C)C2CCCCC2)C(=O)O)cc1 [Cpd 11] | < 5.30 | 7.28
COc1cnn(C)c(=O)c1-c1ccc(C[C@H](NC(=O)N(C)Cc2ccccc2)C(=O)O)cc1 [Cpd 12] | < 5.30 | 6.22
COc1cnn(C)c(=O)c1-c1ccc(C[C@H](NC(=O)N(C)CCO)C(=O)O)cc1 [Cpd 14] | < 5.30 | 7.03
COc1cnn(C)c(=O)c1-c1ccc(C[C@H](NC(=O)N(CCO)Cc2ccccc2)C(=O)O)cc1 [Cpd 15] | < 5.30 | 6.51
COc1cnn(C)c(=O)c1-c1ccc(C[C@H](NC(=O)N(CCO)c2ccccc2)C(=O)O)cc1 [Cpd 16] | < 5.30 | 7.16
COc1cnn(C)c(=O)c1-c1ccc(C[C@H](NC(=O)N(CCO)C2CCCCC2)C(=O)O)cc1 [Cpd 17] | < 5.30 | 6.55
COc1cnn(C)c(=O)c1-c1ccc(C[C@H](NC(=O)N(Cc2ccccc2)CC(C)C)C(=O)O)cc1 [Cpd 18] | 5.58 | 6.40
COc1cnn(C)c(=O)c1-c1ccc(C[C@H](NC(=O)N(C)C)C(=O)O)cc1 [Cpd 19] | – | 5.81
COc1cnn(C)c(=O)c1-c1ccc(C[C@H](NC(=O)NC2CCCCC2)C(=O)O)cc1 [Cpd 20] | – | 6.30
COc1cnn(C)c(=O)c1-c1ccc(C[C@H](NC(=O)N(C2CC2)C2CCN(C)CC2)C(=O)O)cc1 [Cpd 22] | < 5.30 | 6.87
COc1cnn(C)c(=O)c1-c1ccc(C[C@H](NC(=O)N[C@H]2CC3CCC2C3)C(=O)O)cc1 (some centres unmarked) [Cpd 23] | < 5.30 | 6.74
COc1cnn(C)c(=O)c1-c1ccc(C[C@H](NC(=O)N2CCN(c3ncc(C(F)(F)F)cc3Cl)CC2)C(=O)O)cc1 [Cpd 24] | < 5.30 | 6.41

More lines, now with the values ahead:

pIC50 (α4β1) | pIC50 (human α4β7 integrin) | SMILES
5.74 | 7.54 | COc1cnn(C)c(=O)c1-c1ccc(C[C@H](NC(=O)N2CCCCC2C)C(=O)O)cc1 (mixture of isomers) [Cpd 28]
< 5.30 | 6.41 | COc1cnn(C)c(=O)c1-c1ccc(C[C@H](NC(=O)N2c3ccccc3CC2C)C(=O)O)cc1 (mixture of isomers) [Cpd 49]
< 5.30 | 6.89 | COc1cnn(C)c(=O)c1-c1ccc(C[C@H](NC(=O)N2c3ccc(F)cc3CCC2C)C(=O)O)cc1 (mixture of isomers) [Cpd 53]
< 5.30 | 5.70 | COc1cnn(C)c(=O)c1-c1ccc(C[C@H](NC(=O)N2CCN(C3C4CC5CC(C4)CC3C5)CC2)C(=O)O)cc1 (some centres unmarked) [Cpd 25]
< 5.30 | 6.22 | COc1cnn(C)c(=O)c1-c1ccc(C[C@H](NC(=O)N(O)C2CCCCC2)C(=O)O)cc1 [Cpd 26]
< 5.30 | 6.66 | COc1cnn(C)c(=O)c1-c1ccc(C[C@H](NC(=O)N(Cc2ccccc2)C(C)C)C(=O)O)cc1 [Cpd 27]
< 5.30 | 6.16 | COc1cnn(C)c(=O)c1-c1ccc(C[C@H](NC(=O)N(C)Cc2cnn(-c3ccccc3)c2)C(=O)O)cc1 [Cpd 29]
< 5.30 | 6.81 | COc1cnn(C)c(=O)c1-c1ccc(C[C@H](NC(=O)N2CCCN(c3nc4ccccc4o3)CC2)C(=O)O)cc1 [Cpd 30]
< 5.30 | 6.38 | CC#CCN(Cc1ccco1)C(=O)N[C@@H](Cc1ccc(-c2c(OC)cnn(C)c2=O)cc1)C(=O)O [Cpd 31]
< 5.30 | 6.37 | COc1cccc2c1OCCCN(C(=O)N[C@@H](Cc1ccc(-c3c(OC)cnn(C)c3=O)cc1)C(=O)O)C2 [Cpd 32]
– | 6.45 | CCCN(C(=O)N[C@@H](Cc1ccc(-c2c(OC)cnn(C)c2=O)cc1)C(=O)O)c1ccccc1 [Cpd 50]
